Columns and labels:
Format in all cases: in vivo
[1] = system: Setaria viridis (SETVI); assay: Herbicidal pre-emergence action, test C (Table C4); conditions: visual scoring after about 3 weeks, 100% = plants have died, 0% = like control plants
Procedure, shortened: (§1)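 Sandy loam, doubly sown pots; surface spray pre-emergence; 1280 or 320 g/ha; 0.5% additive; 600 L/ha. Greenhouse, ~3 weeks. Visual % vs untreated.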

[2] = system: Abutilon theophrasti (ABUTH); assay: Herbicidal pre-emergence action, test C (Table C5); conditions: visual scoring after about 3 weeks, 100% = plants have died, 0% = like control plants
Procedure, shortened: as §1

[3] = system: Stellaria media (STEME); assay: Herbicidal post-emergence action (Table B8); conditions: visual rating about 3 weeks after treatment, 100% = plants have died, 0% = like control plants
Procedure, shortened: (§2)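 Weeds grown from seed in sandy loam in the greenhouse were sprayed at the one-leaf stage, 2 to 3 weeks after sowing, with WP or EC formulations in water plus 0.5% additive at 600 L/ha. Rates corresponded to 1280 or 320 g/ha; damage was rated visually versus untreated controls after about 3 weeks.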

[4] = system: Poa annua (POAAN); assay: Herbicidal post-emergence action (Table B3); conditions: rated visually after about 3 weeks, 100% = plants have died, 0% = like control plants
Procedure, shortened: as §2

[5] = system: Amaranthus retroflexus (AMARE); assay: Herbicidal post-emergence action (Table B6); conditions: visual rating about 3 weeks after treatment, 100% = plants have died, 0% = like control plants
Procedure, shortened: as §2

[6] = system: Echinochloa crus-galli (ECHCG); assay: Herbicidal post-emergence action (Table B1); conditions: rated visually after about 3 weeks, 100% = plants have died, 0% = like control plants
Procedure, shortened: as §2

[7] = system: Stellaria media (STEME); assay: Herbicidal pre-emergence action, test C (Table C8); conditions: visual scoring after about 3 weeks, 100% = plants have died, 0% = like control plants
Procedure, shortened: as §1

[8] = system: harmful plants ABUTH, AMARE, ECHCG, LOLRI, MATIN, POAAN, SETVI, STEME, ALOMY, DIGSA, KCHSC and VERPE; assay: Herbicidal post-emergence action, summary of Tables B1-B12; conditions: application rate of 1280 or 320 g of active ingredient per hectare; summary in words
Procedure, shortened: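 Greenhouse weeds in sandy loam treated post-emergence at the one-leaf stage, 2–3 weeks after sowing, with WP or EC formulations sprayed with 0.5% additive at 600 L/ha water, 1280 or 320 g/ha. Damage rated visually after about 3 weeks versus untreated controls (0% = like control, 100% = dead).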

[9] = system: Poa annua (POAAN); assay: Herbicidal pre-emergence action, test C (Table C3); conditions: visual scoring after about 3 weeks, 100% = plants have died, 0% = like control plants
Procedure, shortened: as §1

[10] = system: Echinochloa crus-galli (ECHCG); assay: Herbicidal pre-emergence action, test C (Table C1); conditions: visual scoring after about 3 weeks, 100% = plants have died, 0% = like control plants
Procedure, shortened: as §1

[11] = system: harmful plants ABUTH, AMARE, ECHCG, LOLRI, MATIN, POAAN, SETVI, STEME, ALOMY, DIGSA, KCHSC and VERPE; assay: Herbicidal pre-emergence action (test C), summary of Tables C1-C12; conditions: application rate of 1280 or 320 g of active ingredient per hectare; summary in words
Procedure, shortened: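 Pre-emergence pot test in sandy loam: WP or EC formulations were sprayed onto the covering soil with 0.5% additive at 600 L/ha water, at 1280 or 320 g/ha. Plants were kept in the greenhouse, and activity was rated visually about 3 weeks later as % versus untreated controls (100% = dead).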

[12] = system: Lolium rigidum (LOLRI); assay: Herbicidal post-emergence action (Table B2); conditions: 1280 g/ha; rated visually after about 3 weeks; 100% = plants have died, 0% = like control plants
Method: (§3) Seeds of mono- and dicotyledonous weed plants were placed in plastic pots in sandy loam soil (doubly sown with in each case one species of mono- or dicotyledonous weed plants per pot), covered with soil and cultivated in a greenhouse under controlled growth conditions. 2 to 3 weeks after sowing, the test plants were treated at the one-leaf stage. The compounds of the invention, formulated in the form of wettable powders (WP) or as emulsion concentrates (EC), were applied onto the green parts of the plants as aqueous suspension or emulsion with addition of 0.5% additive at a water application rate of 600 liters per hectare (converted). After the test plants had been kept in the greenhouse under optimum growth conditions for about 3 weeks, the activity of the preparations was rated visually in comparison to untreated controls. For example, 100% activity=the plants have died, 0% activity=like control plants. Tables B1 to B12 below show the effects of selected compounds of the general formula (I) according to Table 1 on various harmful plants and an application rate corresponding to 1280 or 320 g/ha, which were obtained by the experimental procedure mentioned above.

[13] = system: Matricaria inodora (MATIN); assay: Herbicidal pre-emergence action, test C (Table C7); conditions: visual scoring after about 3 weeks, 100% = plants have died, 0% = like control plants
Procedure, shortened: as §1

[14] = system: Lolium rigidum (LOLRI); assay: Herbicidal pre-emergence action, test C (Table C2); conditions: dosage 1280 g/ha; visual scoring after about 3 weeks; 100% = plants have died, 0% = like control plants
Source text: (§4) Seeds of mono- and dicotyledonous weed plants were placed in plastic pots in sandy loam soil (doubly sown with one species each of mono- or dicotyledonous weed plants per pot) and covered with soil. The compounds of the invention, formulated in the form of wettable powders (WP) or as emulsion concentrates (EC), were then applied onto the surface of the covering soil as aqueous suspension or emulsion with addition of 0.5% additive at a water application rate of 600 liters per hectare (converted). After the treatment, the pots were placed in a greenhouse and kept under good growth conditions for the test plants. After about 3 weeks, the effect of the preparations was scored visually in comparison with untreated controls as percentages. For example, 100% activity=the plants have died, 0% activity=like control plants. Tables C1 to C12 below show the effects of selected compounds of the general formula (I) according to Table 1 on various harmful plants and an application rate corresponding to 1280 or 320 g/ha, which were obtained by the experimental procedure mentioned above.

[15] = system: Amaranthus retroflexus (AMARE); assay: Herbicidal pre-emergence action, test C (Table C6); conditions: visual scoring after about 3 weeks, 100% = plants have died, 0% = like control plants
Procedure, shortened: as §1

[16] = system: Abutilon theophrasti (ABUTH); assay: Herbicidal post-emergence action (Table B5); conditions: rated visually after about 3 weeks, 100% = plants have died, 0% = like control plants
Procedure, shortened: as §2

[17] = system: Bassia scoparia (KCHSC); assay: Herbicidal pre-emergence action, test C (Table C11); conditions: visual scoring vs untreated controls
Source text: as §4

[18] = system: Digitaria sanguinalis (DIGSA); assay: Herbicidal post-emergence action (Table B10); conditions: visual rating about 3 weeks after treatment, 100% = plants have died, 0% = like control plants
Procedure, shortened: as §2

[19] = system: Digitaria sanguinalis (DIGSA); assay: Herbicidal pre-emergence action, test C (Table C10); conditions: visual scoring after about 3 weeks, 100% = plants have died, 0% = like control plants
Procedure, shortened: as §1

[20] = system: Setaria viridis (SETVI); assay: Herbicidal post-emergence action (Table B4); conditions: rated visually after about 3 weeks, 100% = plants have died, 0% = like control plants
Method: as §3

[21] = system: Alopecurus myosuroides (ALOMY); assay: Herbicidal pre-emergence action, test C (Table C9); conditions: visual scoring after about 3 weeks, 100% = plants have died, 0% = like control plants
Procedure, shortened: as §1

[22] = system: Bassia scoparia (KCHSC); assay: Herbicidal post-emergence action (Table B11); conditions: visual rating about 3 weeks after treatment, 100% = plants have died, 0% = like control plants
Procedure, shortened: as §2

[23] = system: Veronica persica (VERPE); assay: Herbicidal post-emergence action (Table B12); conditions: visual rating about 3 weeks after treatment, 100% = plants have died, 0% = like control plants
Procedure, shortened: as §2

[24] = system: Alopecurus myosuroides (ALOMY); assay: Herbicidal post-emergence action (Table B9); conditions: rated visually after about 3 weeks, 100% = plants have died, 0% = like control plants
Procedure, shortened: as §2

[25] = system: Veronica persica (VERPE); assay: Herbicidal pre-emergence action, test C (Table C12); conditions: visual scoring vs untreated controls
Procedure, shortened: as §1

Row | SMILES | Pre-emergence action against Setaria viridis (SETVI) ([1]; dosage 320 g/ha) [%] | Pre-emergence action against Setaria viridis (SETVI) ([1]; dosage 1280 g/ha) [%] | Pre-emergence action against Abutilon theophrasti (ABUTH) ([2]; dosage 320 g/ha) [%] | Pre-emergence action against Abutilon theophrasti (ABUTH) ([2]; dosage 1280 g/ha) [%] | Post-emergence action against Stellaria media (STEME) ([3]; dosage 320 g/ha) [%] | Post-emergence action against Stellaria media (STEME) ([3]; dosage 1280 g/ha) [%] | Post-emergence action against Poa annua (POAAN) ([4]; 320 g/ha) [%] | Post-emergence action against Poa annua (POAAN) ([4]; 1280 g/ha) [%] | Post-emergence action against Amaranthus retroflexus (AMARE) ([5]; dosage 320 g/ha) [%] | Post-emergence action against Amaranthus retroflexus (AMARE) ([5]; dosage 1280 g/ha) [%] | Post-emergence action against Echinochloa crus-galli (ECHCG) ([6]; 1280 g/ha) [%] | Pre-emergence action against Stellaria media (STEME) ([7]; dosage 320 g/ha) [%] | Pre-emergence action against Stellaria media (STEME) ([7]; dosage 1280 g/ha) [%] | herbicidal activity against the harmful plants of Tables B1-B12 in post-emergence treatment [8] | Pre-emergence action against Echinochloa crus-galli (ECHCG) ([10]; dosage 1280 g/ha) [%] | herbicidal activity against the harmful plants of Tables C1-C12 in pre-emergence treatment [11] | Pre-emergence action against Lolium rigidum (LOLRI) [14] [%] | Pre-emergence action against Amaranthus retroflexus (AMARE) ([15]; dosage 320 g/ha) [%] | Pre-emergence action against Amaranthus retroflexus (AMARE) ([15]; dosage 1280 g/ha) [%] | Post-emergence action against Abutilon theophrasti (ABUTH) ([16]; 320 g/ha) [%] | further results
1 | Fc1cccc(Oc2ccccn2)c1-c1cc(C(F)F)no1 [Example 1-16] | 100 | 100 | 100 | 100 | 100 | 100 | 100 | 100 | 100 | 100 | 100 | 100 | 100 | very good herbicidal activity | 90 | very good herbicidal activity | 100 | 100 | 100 | 100 | Post-emergence action against Echinochloa crus-galli (ECHCG) ([6]; 320 g/ha): 90%; Pre-emergence action against Poa annua (POAAN) ([9]; dosage 320 g/ha): 100%; Pre-emergence action against Poa annua (POAAN) ([9]; dosage 1280 g/ha): 100%; Post-emergence action against Lolium rigidum (LOLRI) [12]: 100%; Pre-emergence action against Matricaria inodora (MATIN) ([13]; dosage 320 g/ha): 90%; Pre-emergence action against Matricaria inodora (MATIN) ([13]; dosage 1280 g/ha): 100%; Post-emergence action against Abutilon theophrasti (ABUTH) ([16]; 1280 g/ha): 100%
2 | N#Cc1cccc(Oc2ccc(Cl)cn2)c1-c1cc(C(F)F)no1 [Example 1-55] | 100 | 100 | 100 | 100 | 100 | 100 | 100 | 100 | 100 | 100 | 100 | 100 | 100 | very good herbicidal activity | 100 | very good herbicidal activity | 100 | 100 | 100 | 100 | Pre-emergence action against Bassia scoparia (KCHSC) ([17]; dosage 320 g/ha): 100%; Pre-emergence action against Bassia scoparia (KCHSC) ([17]; dosage 1280 g/ha): 100%; Post-emergence action against Digitaria sanguinalis (DIGSA) ([18]; dosage 320 g/ha): 100%; Post-emergence action against Digitaria sanguinalis (DIGSA) ([18]; dosage 1280 g/ha): 100%; Pre-emergence action against Digitaria sanguinalis (DIGSA) ([19]; dosage 320 g/ha): 100%; Pre-emergence action against Digitaria sanguinalis (DIGSA) ([19]; dosage 1280 g/ha): 100%; Pre-emergence action against Echinochloa crus-galli (ECHCG) ([10]; dosage 320 g/ha): 100%; Post-emergence action against Setaria viridis (SETVI) ([20]; 320 g/ha): 100%; Post-emergence action against Setaria viridis (SETVI) ([20]; 1280 g/ha): 100%; Pre-emergence action against Alopecurus myosuroides (ALOMY) ([21]; dosage 320 g/ha): 100%; Pre-emergence action against Alopecurus myosuroides (ALOMY) ([21]; dosage 1280 g/ha): 100%; Post-emergence action against Bassia scoparia (KCHSC) ([22]; dosage 320 g/ha): 100%; Post-emergence action against Bassia scoparia (KCHSC) ([22]; dosage 1280 g/ha): 100%; Post-emergence action against Veronica persica (VERPE) ([23]; dosage 320 g/ha): 100%; Post-emergence action against Veronica persica (VERPE) ([23]; dosage 1280 g/ha): 100%; Post-emergence action against Abutilon theophrasti (ABUTH) ([16]; 1280 g/ha): 100%; Post-emergence action against Alopecurus myosuroides (ALOMY) ([24]; 320 g/ha): 100%; Post-emergence action against Alopecurus myosuroides (ALOMY) ([24]; 1280 g/ha): 100%; Pre-emergence action against Veronica persica (VERPE) ([25]; dosage 320 g/ha): 100%; Pre-emergence action against Veronica persica (VERPE) ([25]; dosage 1280 g/ha): 100%

— patent US12052991B2, “Substituted pyridinyloxybenzenes and salts thereof and use thereof as herbicidal agents” (Bayer Aktiengesellschaft, priority 2018, dated 2024)
